# Reference: patent US7932270B2 (Cytokinetics, Inc., priority 2006, dated 2011)
# Target: T1, chicken gizzard smooth muscle myosin subfragment-1 chemically crosslinked to cardiac or skeletal actin (Gallus gallus, UniProt P10587)
# T1 construct: chicken gizzard smooth muscle myosin subfragment-1; from tissue; host or cells: chicken gizzard
# Test: Smooth muscle myosin ATPase dose response assay (pyruvate kinase/horseradish peroxidase/pyruvate oxidase-coupled, amplex red fluorescence)
# Type: biochemical
# Settings: read-out: IC50 Arithmetic Mean
# Summary of the method: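 Chicken gizzard myosin S1 crosslinked to cardiac or skeletal actin, titrated to a set hydrolysis rate; 0.15 mM ATP, 12 mM PIPES pH 7.00, 100 mM KCl, 2 mM MgCl2. Pyruvate kinase/pyruvate oxidase/HRP coupling with amplex red fluorescence; IC50 from 4-parameter fit.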
# T1 sequence (P02607 2-151): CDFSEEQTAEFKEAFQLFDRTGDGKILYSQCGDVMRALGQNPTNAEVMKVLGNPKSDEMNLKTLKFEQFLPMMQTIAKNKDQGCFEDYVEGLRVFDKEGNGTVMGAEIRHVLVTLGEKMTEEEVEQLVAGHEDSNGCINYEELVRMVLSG
# T1 sequence (P10587 84-789): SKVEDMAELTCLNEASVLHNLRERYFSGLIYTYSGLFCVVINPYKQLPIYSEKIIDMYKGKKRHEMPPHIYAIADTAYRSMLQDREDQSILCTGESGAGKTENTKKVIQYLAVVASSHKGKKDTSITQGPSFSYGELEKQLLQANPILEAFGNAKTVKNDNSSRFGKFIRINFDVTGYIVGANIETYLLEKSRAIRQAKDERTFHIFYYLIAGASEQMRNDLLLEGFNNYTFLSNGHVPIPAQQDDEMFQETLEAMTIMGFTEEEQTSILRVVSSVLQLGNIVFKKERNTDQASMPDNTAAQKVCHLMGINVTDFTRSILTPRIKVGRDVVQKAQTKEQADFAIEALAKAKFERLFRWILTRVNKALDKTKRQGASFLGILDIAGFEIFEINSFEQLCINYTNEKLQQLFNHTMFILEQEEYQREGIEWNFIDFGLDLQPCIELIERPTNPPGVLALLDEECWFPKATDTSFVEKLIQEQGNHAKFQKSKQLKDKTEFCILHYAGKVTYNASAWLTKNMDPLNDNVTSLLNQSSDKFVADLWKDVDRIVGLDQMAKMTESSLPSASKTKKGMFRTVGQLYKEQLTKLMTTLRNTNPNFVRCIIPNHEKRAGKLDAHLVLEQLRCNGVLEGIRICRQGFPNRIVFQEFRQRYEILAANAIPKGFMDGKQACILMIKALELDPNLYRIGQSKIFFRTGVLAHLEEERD
row,Compound,IC50 [nM]
1,CC(C)(C)OC(=O)NCCCN1C(=O)CC[C@@H]1CNC(=O)c1cc(F)c(-c2cn[nH]c2)nc1NCCc1cccc(F)c1 [N-[((2R)-1-{3-[(tert-butoxy)carbonylamino]propyl}-5-oxopyrrolidin-2-yl)methyl](5-fluoro-2-{[2-(3-fluorophenyl)ethyl]amino}-6-pyrazol-4-yl(3-pyridyl))carboxamide],354
2,O=C(NC[C@H]1CCCN1)c1ccc(-c2cn[nH]c2)nc1NCCc1cccc(F)c1 [N-[((2R)pyrrolidin-2-yl)methyl](2-{[2-(3-fluorophenyl)ethyl]amino}-6-pyrazol-4-yl(3-pyridyl))carboxamide],4750
3,N#Cc1ccccc1-c1ccc(C(=O)NCCc2ncccc2CN)c(NCCc2cccc(F)c2)n1 [N-{2-[3-(aminomethyl)(2-pyridyl)]ethyl}(6-(2-cyanophenyl)-2-{[2-(3-fluorophenyl)ethyl]amino}(3-pyridyl))carboxamide],310
4,COC(=O)N1CC[C@@H]1CNC(=O)c1ccc(-c2ccccc2C#N)nc1NCCc1cccc(F)c1 [methyl (2R)-2-{[(6-(2-cyanophenyl)-2-{[2-(3-fluorophenyl)ethyl]amino}(3-pyridyl))carbonylamino]methyl}azetidinecarboxylate],73
5,N#Cc1ccccc1-c1ccc(C(=O)N[C@H]2CCNC2=O)c(NCCc2cccc(F)c2)n1 [N-((3S)-2-oxopyrrolidin-3-yl)(6-(2-cyanophenyl)-2-{[2-(3-fluorophenyl)ethyl]amino}(3-pyridyl))carboxamide],3250
6,N#Cc1ccccc1-c1ccc(C(=O)NC[C@H]2CCN2C(=O)CO)c(NCCc2cccc(F)c2)n1 [N-{[(2R)-1-(2-hydroxyacetyl)azetidin-2-yl]methyl}(6-(2-cyanophenyl)-2-{[2-(3-fluorophenyl)ethyl]amino}(3-pyridyl))carboxamide],40
7,"CN(C)C(=NCc1cccc(CNC(=O)c2ccc(-c3ccccc3C#N)nc2NCCc2cccc(F)c2)n1)N(C)C [N-({6-[3,3-bis(dimethylamino)-2-azaprop-2-enyl](2-pyridyl)}methyl)(6-(2-cyanophenyl)-2-{[2-(3-fluorophenyl)ethyl]amino}(3-pyridyl))carboxamide]",285
8,COC(=O)[C@@H](CN)NC(=O)c1ccc(-c2ccccc2C#N)nc1NCCc1cccc(F)c1 [methyl (2R)-3-amino-2-[(6-(2-cyanophenyl)-2-{[2-(3-fluorophenyl)ethyl]amino}(3-pyridyl))carbonylamino]propanoate],2380
9,Cn1cc(-c2ccc(C(=O)NCC3CNCC(=O)N3)c(NCCc3cccc(F)c3)n2)cn1 (stereo not drawn) [(2-{[2-(3-fluorophenyl)ethyl]amino}-6-(1-methylpyrazol-4-yl)(3-pyridyl))-N-[(6-oxopiperazin-2-yl)methyl]carboxamide],1240
10,CC(NC(=O)c1ccc(-c2ccccc2C#N)nc1NCCc1cccc(F)c1)C(N)=O (stereo not drawn),564
11,C[C@H](CNC(=O)c1cc(F)c(-c2cn[nH]c2)nc1NCCn1cccn1)NC(=O)CN,4640
12,CC(C)(C)OC(=O)NCCCC(=O)N1CCC[C@@H]1CNC(=O)c1cc(C#N)c(-c2cn[nH]c2)nc1NCCc1cccc(F)c1 [N-[((2R)-1-{4-[(tert-butoxy)carbonylamino]butanoyl}pyrrolidin-2-yl)methyl](5-cyano-2-{[2-(3-fluorophenyl)ethyl]amino}-6-pyrazol-4-yl(3-pyridyl))carboxamide],3420
13,COC(=O)c1ccc(-c2ccc(C(=O)NCc3cccnc3)c(NCCc3ccccn3)n2)cc1 [methyl 4-{6-[(2-(2-pyridyl)ethyl)amino]-5-[N-(3-pyridylmethyl)carbamoyl]-2-pyridyl}benzoate],989
14,O=C(NCc1cccnc1)c1ccc(-c2ccccc2)nc1NCCc1cccs1 [{6-phenyl-2-[(2-(2-thienyl)ethyl)amino](3-pyridyl)}-N-(3-pyridylmethyl)carboxamide],149
15,CNC(=O)[C@H](CNC(=O)OC(C)(C)C)NC(=O)c1ccc(-c2ccccc2C#N)nc1NCCc1cccc(F)c1 [(2S)-3-[(tert-butoxy)carbonylamino]-2-[(6-(2-cyanophenyl)-2-{[2-(3-fluorophenyl)ethyl]amino}(3-pyridyl))carbonylamino]-N-methylpropanamide],43600
16,COc1ccc(-c2ccc(C(=O)NCc3cccnc3)c(NCCc3ccccn3)n2)cc1 [{6-(4-methoxyphenyl)-2-[(2-(2-pyridyl)ethyl)amino](3-pyridyl)}-N-(3-pyridylmethyl)carboxamide],1060
17,O=C(NCc1cccnc1)c1ccc(-c2cccnc2)nc1NCCc1ccccn1 [N-(3-pyridylmethyl){6-(3-pyridyl)-2-[(2-(2-pyridyl)ethyl)amino](3-pyridyl)}carboxamide],19100
18,N#Cc1ccccc1-c1ccc(C(=O)NCc2cccc(NCCN)n2)c(NCCc2cccc(F)c2)n1 [N-({6-[(2-aminoethyl)amino](2-pyridyl)}methyl)(6-(2-cyanophenyl)-2-{[2-(3-fluorophenyl)ethyl]amino}(3-pyridyl))carboxamide],7

row,Compound,IC50 [nM]
1,CC[C@H](CNC(=O)c1cc(F)c(-c2cnn(C)c2)nc1NCCc1cccc(F)c1)NC(=O)CN [N-((1R)-1-{[(5-fluoro-2-{[2-(3-fluorophenyl)ethyl]amino}-6-(1-methylpyrazol-4-yl)(3-pyridyl))carbonylamino]methyl}propyl)-2-aminoacetamide],131
2,NCc1ccc(CNC(=O)c2ccc(-c3ccccc3)nc2NCCc2cccc(F)c2)cn1 [N-{[6-(aminomethyl)(3-pyridyl)]methyl}(2-{[2-(3-fluorophenyl)ethyl]amino}-6-phenyl(3-pyridyl))carboxamide],420
3,NCc1ncccc1CNC(=O)c1cc(F)c(-c2ccccn2)nc1NCCc1cccc(F)c1 [N-{[2-(aminomethyl)(3-pyridyl)]methyl}(5-fluoro-2-{[2-(3-fluorophenyl)ethyl]amino}-6-(2-pyridyl)(3-pyridyl))carboxamide],66
4,N#Cc1ccccc1-c1ccc(C(=O)NCc2cccc(Br)n2)c(NCCc2cccc(F)c2)n1 [N-[(6-bromo(2-pyridyl))methyl](6-(2-cyanophenyl)-2-{[2-(3-fluorophenyl)ethyl]amino}(3-pyridyl))carboxamide],233
5,O=C(Nc1ccccn1)c1ccc(-c2ccccc2)nc1NCCc1ccccn1 [{6-phenyl-2-[(2-(2-pyridyl)ethyl)amino](3-pyridyl)}-N-(2-pyridyl)carboxamide],7190
6,C[C@H](CNC(=O)c1cc(F)c(-c2cnn(C)c2)nc1NCCc1cccc(F)c1)NCCO [N-{(2R)-2-[(2-hydroxyethyl)amino]propyl}(5-fluoro-2-{[2-(3-fluorophenyl)ethyl]amino}-6-(1-methylpyrazol-4-yl)(3-pyridyl))carboxamide],648
7,N#Cc1ccccc1-c1ccc(C(=O)NCc2cccnc2)c(NCCc2ccccc2O)n1 [(6-(2-cyanophenyl)-2-{[2-(2-hydroxyphenyl)ethyl]amino}(3-pyridyl))-N-(3-pyridylmethyl)carboxamide],380
8,Cc1ccc(CNC(=O)c2ccc(-c3ccccc3C#N)nc2NCCc2cccc(F)c2)cn1 [(6-(2-cyanophenyl)-2-{[2-(3-fluorophenyl)ethyl]amino}(3-pyridyl))-N-[(6-methyl(3-pyridyl))methyl]carboxamide],426
9,N#Cc1ccccc1-c1ccc(C(=O)NCC(CN)C(=O)NCCN)c(NCCc2cccc(F)c2)n1 (stereo not drawn) [3-amino-N-(2-aminoethyl)-2-{[(6-(2-cyanophenyl)-2-{[2-(3-fluorophenyl)ethyl]amino}(3-pyridyl))carbonylamino]methyl}propanamide],13700
10,O=C1CC[C@H](CNC(=O)c2ccc(-c3cc[nH]n3)nc2NCCc2cccc(F)c2)N1 [N-[((2R)-5-oxopyrrolidin-2-yl)methyl](2-{[2-(3-fluorophenyl)ethyl]amino}-6-pyrazol-3-yl(3-pyridyl))carboxamide],355
11,O=C(NCc1cccnc1)c1cc(F)c(-c2cn[nH]c2)nc1NCCn1cccn1 [{5-fluoro-6-pyrazol-4-yl-2-[(2-pyrazolylethyl)amino](3-pyridyl)}-N-(3-pyridylmethyl)carboxamide],211
12,CC(=O)c1ccc(-c2ccc(C(=O)NCc3cccnc3)c(NCCc3ccccn3)n2)cc1 [{6-(4-acetylphenyl)-2-[(2-(2-pyridyl)ethyl)amino](3-pyridyl)}-N-(3-pyridylmethyl)carboxamide],2130
13,N#Cc1ccccc1-c1ccc(C(=O)NCC(CN)C(N)=O)c(NCCc2cccc(F)c2)n1 (stereo not drawn) [N-(3-amino-2-carbamoylpropyl)(6-(2-cyanophenyl)-2-{[2-(3-fluorophenyl)ethyl]amino}(3-pyridyl))carboxamide],6650
14,N#Cc1ccccc1-c1ccc(C(=O)NC[C@H]2CCCN2S(=O)(=O)CCN)c(NCCc2cccc(F)c2)n1 [N-({(2R)-1-[(2-aminoethyl)sulfonyl]pyrrolidin-2-yl}methyl)(6-(2-cyanophenyl)-2-{[2-(3-fluorophenyl)ethyl]amino}(3-pyridyl))carboxamide],71
15,NCc1ncccc1CNC(=O)c1ccc(-c2cn[nH]c2)nc1NCCc1ccccn1 [N-{[2-(aminomethyl)(3-pyridyl)]methyl}{6-pyrazol-4-yl-2-[(2-(2-pyridyl)ethyl)amino](3-pyridyl)}carboxamide],1240
16,NCC1CCCCN1C(=O)c1ccc(-c2ccccc2)nc1NCCc1ccccn1 (stereo not drawn) [2-(aminomethyl)piperidyl 6-phenyl-2-[(2-(2-pyridyl)ethyl)amino](3-pyridyl) ketone],18200
17,O=C(NCc1cccnc1)c1ccc(-c2ccc(F)cc2)nc1NCCc1ccccn1 [{6-(4-fluorophenyl)-2-[(2-(2-pyridyl)ethyl)amino](3-pyridyl)}-N-(3-pyridylmethyl)carboxamide],1050
18,Cn1cc(-c2nc(NCCc3cccc(F)c3)c(C(=O)NCc3cccnc3CN)cc2C#N)cn1 [N-{[2-(aminomethyl)(3-pyridyl)]methyl}(5-cyano-2-{[2-(3-fluorophenyl)ethyl]amino}-6-(1-methylpyrazol-4-yl)(3-pyridyl))carboxamide],50
